Experimental data as given in a melting point compilation (Tetko et al.; mined from patent text by program, amines drawn as free bases though some values may be those of a salt).

SMILES | melting point
CC(C)=C(C#N)C(=O)OC(COc1ccc(C(=O)c2ccccc2)c(O)c1)COc1ccc(C(=O)c2ccccc2)c(O)c1 | 145 to 147 °C
CCOc1nn(C(=O)NS(=O)(=O)c2c(C(=O)N(C)C)csc2C)c(=O)n1C | 162 °C
CC(C)(Oc1ccc(Cl)cc1)C(=O)NCCCn1ccnc1 | 83 to 84 °C
COc1ccc(-n2nc(Sc3cc(Cl)cc(Cl)c3)c(C)c(C#N)c2=O)cc1 | 195 to 197 °C
O=c1[nH]c2cc(C(F)(F)F)c(N3CCOCC3)cc2n2c(=O)[nH]nc12 | > 300 °C
COC(=O)c1cc(N)cs1 | 76 to 78 °C
O=C(O)/C=C/C(=O)c1ccoc1 | 104 to 106 °C
CS(=O)(=O)c1ccc(-c2nc(C(F)(F)F)[nH]c2-c2ccc(Cl)c(Cl)c2)cc1 | 249 to 251 °C
CCOC(=O)c1ccc(NCCOc2cccc3c2CCCC3)cc1 | 133 to 135 °C
CCCc1nn(CC)c(C(N)=O)c1N | 81 to 83 °C
CSc1nc(O)c(-c2ccccc2F)c(O)n1 | > 240 °C
O=C(O)C(=O)Cc1ccsc1 | 203 to 204 °C
O=C(Cc1ccc(O)cc1)NC1CCN(Cc2ccc(Cl)c(Cl)c2)CC1 | 72 to 97 °C
O=C(NC(=O)c1nnn(Cc2ccccc2)c1NC(=O)c1ccccc1)c1ccccc1 | 171 to 173 °C
CN1Cc2c(C#N)ncn2-c2cccc(Cl)c2C1=O | 238 to 240 °C
COc1cccc(-c2oc3ccccc3c(=O)c2OCCCCCCN2CCC(O)CC2)c1 | 119 to 120 °C
COc1cc2c(c(OC)c1OC)CCC(Br)C2=O (stereo not drawn) | 107 to 108 °C
CCN1C(C(=O)Nc2ccccc2)=C(O)c2ccc3ccccc3c2S1(=O)=O | 245 to 247 °C
COc1ccc2c(n1)C1(CO2)C(=O)N(Cc2ccc3c(c2)OCCO3)c2ccccc21 (stereo not drawn) | 144 to 146 °C
O=C(Nc1ccc(-n2nc(C(F)(F)F)cc2C(F)(F)F)cc1)c1ccno1 | 202 to 204 °C
Cc1cc2c(O)nccc2s1 | 214 to 216 °C
COC(=O)CCC(=O)c1ccc(-c2ccc(C(F)(F)F)cc2)cc1 | 140 to 142 °C
c1cncc(C2=NOC(C3CC3)(N3CCCC3)C2)c1 (stereo not drawn) | 90 to 92 °C
FC(F)(F)c1ccc2nc3c(nc2c1)OCC1CCCCN31 (stereo not drawn) | 154 to 156 °C
COC(OC)c1ccc(C=C2C(=O)C3(C)CCC2C3(C)C)cc1 (stereo not drawn) | 98 °C

SMILES | melting point
Cc1ccc2nc(-c3cc(C(F)(F)C(F)(F)F)nn3-c3ccc(S(C)(=O)=O)cc3)sc2c1 | 195 to 196 °C
OCC(O)Cc1nccn1CCCc1cccc(OCc2coc(/C=C/c3ccc(F)cc3F)n2)c1 (stereo not drawn) | 92 to 94 °C
CCc1nnc2nc(-c3cccc(C(F)(F)F)c3)ccn12 | 223 to 224 °C
CCOC(=O)C1=C(NC(C)=O)Oc2cc(O)ccc2C1c1cnc2ccccc2c1 (stereo not drawn) | 248 to 251 °C
O=C(O)COc1c(I)cc(C(=O)c2cccs2)cc1I | 160 °C
CC(=O)OCC(N)C(=O)Nn1cccc1 (stereo not drawn) | 147 to 148 °C
Cn1c(Cl)c(Cl)c2cnc(NC(=O)c3ccc([C@](C)(O)CO)cc3)cc21 | 205 to 208 °C
CN1CCc2cc(OC[C@H]3CO[C@](Cn4ccnc4)(c4ccc(Cl)cc4Cl)O3)ccc2C12CCSCC2 (racemic) | 138 to 139 °C
O=c1cc2c(nn1-c1ccc(Cl)cc1)-c1cccnc1CC2 | 166 to 167 °C
COc1cc2c(Cl)c(C#N)cnc2cc1OCC1CCN(C)CC1 | 166 to 168 °C
COc1ccc(CN(CC2CCOCC2)S(=O)(=O)c2ccc(Cl)cc2)cc1C(=O)O | 158 to 159 °C
CCCn1c(=O)n2c(=O)[nH]nc2c2[nH]cnc21 | > 290 °C
O=C(OC1C(O)COC(Oc2ccc([N+](=O)[O-])cc2)C1OC(=O)c1ccccc1)c1ccccc1 (stereo not drawn) | 150 to 151 °C
O=C(NCCOCCO)C12CC3CC(CC(C3)C1)C2 | 72 to 73 °C
Nc1cccc(-c2cccc3c2/C(=C/c2ccc[nH]2)C(=O)N3)c1 | 92 to 94 °C
CC(=O)OCc1ncc2n1-c1ccc(Cl)cc1C(c1ccccc1F)=[N+]([O-])C2 | 203 to 205 °C
O=C(OCCCc1nc(-c2ccc(Cl)cc2)co1)c1ccccc1 | 47 to 47.5 °C
CCOC(=O)c1ccc(-c2nc(CCl)c(C)o2)s1 | 101 to 102 °C
CCn1c(-c2ccc(-n3ccnc3)cc2)cnc1[C@H](Cc1ccccn1)N(C=O)c1cc2cc(F)ccc2o1 | 80 to 84 °C
CCN(CC)CC(=O)OC1CC2(C)C(C(C)=O)CCC2C2CCC3CC(O)C(SC#N)CC3(C)C12 (stereo not drawn) | 173 to 180 °C
O=C(O)C(Oc1ccccc1)(C(F)(F)F)C(F)(F)F | 6 to 8 °C
Nc1cc(=O)n(Cc2c(Cl)cccc2Cl)[nH]1 | 225 °C
Oc1cc2c3ccc(O)c(O)c3n(Cc3ccc(C(F)(F)F)cc3)c2cc1O | 266 to 270 °C
Fc1ccc(CSc2nnc(-c3ccc4c(c3)CCO4)o2)cc1F | 138 to 139 °C
Cc1sc(I)c(C)c1CO | 118 to 120 °C

SMILES | melting point
O=C(NCc1cccc(C(F)(F)F)c1)c1ccc2n1Cc1ccccc1N(C(=O)CSc1ccc(Br)cc1)C2 | 102 °C
CCC/C=C\c1nc(Cl)c(CO)n1Cc1ccc(-c2ccccc2)c(C(=O)O)c1 | 148 to 150 °C
CC(=O)Oc1cccc2[nH]ccc12 | 97 to 98 °C
CCOc1ccc(Nc2ncc3c(n2)N(c2ccccc2)C(=O)N(c2c(Cl)cccc2Cl)C3)cc1 | 224 to 226 °C
CCOC(OCC)c1cc(=O)[nH]c(N)n1 | 198 to 203 °C
CC(=O)c1c(C)c2c(C)[nH]c(-c3ccccc3)c2[nH]c1=O | 250 to 251 °C
O=C(Nc1cccnc1)c1ccc(OC(F)F)c2oc3ccccc3c12 | 209 to 211 °C
CCCCN1CC2CN(S(=O)(=O)c3ccc(NC(C)=O)cc3)CC(C1)C2(C)C | 130 °C
CC(C)(C)OC(=O)NC1Cc2ccccc2N(c2ccccc2)C1 (stereo not drawn) | 139 to 141 °C
CN(C(=O)c1ccc2nonc2c1)C1CC=C(F)CC1 (stereo not drawn) | 117 to 118 °C
CN1CCN(c2cccc(Nc3cc(NC(=O)Nc4c(Cl)cccc4Cl)ncn3)c2)CC1 | 209 to 212 °C
Cc1noc(-c2ncn3c2cnc2ccccc23)n1 | 269 to 270 °C
COc1cccc(Oc2ncccc2C(=O)NCc2ccccc2Cl)c1 | 71 to 74 °C
Cc1ccc(N2C(=O)C(O)=C(C(=O)c3ccc(C(C)C)cc3)C2c2ccc(OCCN3CCOCC3)cc2)nn1 (stereo not drawn) | 256 °C
O=C1Cn2nccc2-c2ccccc2N1 | 236 to 240 °C
Nc1nccc2[nH]cnc12 | 260 to 262 °C
CCC1(CC)C(=O)N(C(C)C)CC(C)(C)N1OC(C)(C)C#N | 84 to 89 °C
C[C@]1(CN2CCN(C3CCN(C(=O)OCc4ccc(OC(F)(F)F)cc4)CC3)CC2)Cn2cc([N+](=O)[O-])nc2O1 | 105 to 106 °C
CN(C)C1=NC(NC(=O)CC2CCCCC2)C(=O)N(c2ccccc2)c2ccccc21 (stereo not drawn) | 264 to 266 °C
Cc1nc2c3cccc(Cl)c3ccn2c1CN(C)C | 157 to 160 °C
BrCC=C(c1ccc(I)cc1)c1ccc(I)cc1 | 105 to 109 °C
ClCc1cn2ccccc2n1 | 93 to 94 °C
O=C1N(CCC2CC2)c2ccccc2C12COc1cc3c(cc12)OCO3 (stereo not drawn) | 125 to 127 °C
